This is an account of results in patent US20220071970A1, “QUINUCLIDINE-3-ONE DERIVATIVES AND THEIR USE IN CANCER TREATMENT” (Aprea Therapeutics AB, priority 2018, published 2022).

The term IC50 denotes the concentration needed to halve the response being measured.

This assay concerns SaOS-2 His273 mtp53 human osteosarcoma cell line. Description: In vitro efficacy study using the SaOS-2 His273 protocol (CellTiter-Glo viability, 72 h). Conditions: SAOS-2, 72 h, read-out: SaOS-2 His273 IC50. It counts as cell-based. As for the experimental part:
SaOS-2 His273 mtp53 is a human osteosarcoma cell line which has been genetically engineered at OnkPat CCK to express His273 mutated p53.
3000 cells/well (50 μl) were seeded into masked (black or white with clear bottom) 96-well cell culture plates using Iscove's Modified Dulbecco's Medium supplemented with 10% heat inactivated (56° C. for 60 min) fetal calf serum. The plates were then incubated for 4 hours, allowing the cells to attach. The test compounds were dissolved in DMSO or water to a concentration of 0.01 M and then further diluted to desired concentrations using the cell medium. 50 μl of freshly diluted test compound from fresh stock was added to the wells. The plates were then incubated for 72 hours.
For viability detection, CellTiter-Glo® Luminescent Cell Viability Assay (CTG) was used. CTG is a homogeneous “add-mix-measure” format method of determining the number of viable cells in culture based on quantitation of the ATP present, an indicator of metabolically active cells. The luminescence was measured using the PerkinElmer Victorx4 instrument.
The average of the signal values for the untreated cells was calculated for each plate. The % of growth suppression was calculated as:
100−((Signal sample/Signal untreated cells)×100).
The results of the SaOs-2 His273 analyses were expressed as IC50 values, i.e. concentration that suppresses growth of at least 50% of the cells. The IC50 values of various compounds according to the invention and of some comparative compounds are shown in Table 1, Table 2, Table 3 and Table 4.
In the case of `CC(C)S(=O)(=O)NCC1C(=O)C2CCN1CC2` (racemic) [Example 18, N-((3-oxoquinuclidin-2-yl)methyl)propane-2-sulfonamide], the IC50 came to 11 µM.
`CS(=O)(=O)N(CC(N)=O)CC1C(=O)C2CCN1CC2` (racemic) [Example 11, 2-(N-((3-oxoquinuclidin-2-yl)methyl)methylsulfon-amido)acetamide]: the concentration for half-maximal inhibition (IC50) amounted to 4.1 µM.
Consider `CC1(S(=O)(=O)NCC2C(=O)C3CCN2CC3)CC1` (racemic) [Example 20, 1-methyl-N-((3-oxoquinuclidin-2-yl)methyl)cyclo-propane-1-sulfonamide], for which the IC50 was found to be 7.4 µM.
On to `O=C1C2CCN(CC2)C1CNC(=O)C(Cl)(Cl)Cl` (racemic) [Example 2, 2,2,2-trichloro-N-((3-oxoquinuclidin-2-yl)methyl)acetamide], for which the half-inhibitory concentration (IC50) was 6.9 µM.
For the compound `CS(=O)(=O)N(CC1C(=O)C2CCN1CC2)C1CC1` (racemic) [Example 21, N-cyclopropyl-N-((3-oxoquinuclidin-2-yl)methyl)-methanesulfonamide], the IC50 is 1.8 µM.
For `CS(=O)(=O)N(CC(=O)O)CC1C(=O)C2CCN1CC2` (racemic) [Example 12, N-(methylsulfonyl)-N-((3-oxoquinuclidin-2-yl)-methyl)qlycine], the IC50 stood at 6 µM.
In the case of `CNC(=O)c1ncn(CC2C(=O)C3CCN2CC3)n1` (racemic) [Example 27, N-methyl-1-((3-oxoquinuclidin-2-yl)methyl)-1H-1,2,4-triazole-3-carboxamide] it was 5 µM; in that of `Cc1cn(CC2C(=O)C3CCN2CC3)c(=O)n(C(=O)OC(C)(C)C)c1=O` (racemic) [Example 25, tert-butyl 5-methyl-2,6-dioxo-3-((3-oxoquinuclidin-2-yl)methyl)-3,6-dihydropyrimidine-1(2H)-carboxylate], 5.3 µM; in that of `O=C1C2CCN(CC2)C1CNS(=O)(=O)C1CC1` (racemic) [Example 19, N-((3-oxoquinuclidin-2-yl)methyl)cyclopropane-sulfonamide], 12 µM.
For `O=C(NCC1C(=O)C2CCN1CC2)C(F)F` (racemic) [Example 5, 2,2-difluoro-N-((3-oxoquinuclidin-2-yl)methyl)acetamide], the IC50 was 13 µM.
Turning to `O=C1C2CCN(CC2)C1Cn1cnc(Cl)n1` (racemic) [Example 28, 2-((3-chloro-1H-1,2,4-triazol-1-yl)methyl)quinuclidin-3-one], the IC50 amounted to 3.1 µM.
For the compound `O=C1C2CCN(CC2)C1Cn1cncn1` (racemic) [Example 30, 2-((1H-1,2,4-triazol-1-yl)methyl)quinuclidin-3-one], the IC50 amounted to 26 µM.
As for `O=C1C2CCN(CC2)C1Cn1cccn1` (racemic) [compound 4, 2-((1H-pyrazol-1-yl)methyl)quinuclidin-3-one, reference compound], the IC50 was more than 40 µM.
Consider `CCN(CC1C(=O)C2CCN1CC2)C(=O)C(F)(F)F` (racemic) [Example 3, N-ethyl-2,2,2-trifluoro-N-((3-oxoquinuclidin-2-yl)methyl)acetamide], for which the half-inhibitory concentration (IC50) came out at 4.2 µM.
`CCN(CC1C(=O)C2CCN1CC2)C(=O)C(Cl)(Cl)Cl` (racemic) [Example 1, 2,2,2-trichloro-N-ethyl-N-((3-oxoquinuclidin-2-yl)methyl)acetamide]: the IC50 stood at 3.2 µM.
Consider `O=C1C2CCN(CC2)C1CNS(=O)(=O)c1ccc(F)cc1` (racemic) [Example 7, 4-fluoro-N-((3-oxoquinuclidin-2-yl)methyl)benzenesulfonamide], for which the IC50 is 7.2 µM.
As to `NC(=O)c1ncn(CC2C(=O)C3CCN2CC3)n1` (racemic) [Example 32, 1-((3-oxoquinuclidin-2-yl)methyl)-1H-1,2,4-triazole-3-carboxamide], the IC50 turned out to be 10 µM.
As for `CS(=O)(=O)N(CC1C(=O)C2CCN1CC2)c1ccccc1` (racemic) [Example 22, N-((3-oxoquinuclidin-2-yl)methyl)-N-phenyl-methanesulfonamide], the IC50 was 1.6 µM.
